Two compounds from ChEMBL document CHEMBL4400532, “Histone methyl transferases: A class of epigenetic opportunities to counter uncontrolled cell proliferation” (Eur J Med Chem, 2019) can be followed below.

For orientation: IC50 means the concentration at which inhibition is half-maximal.

Experiment [1] has as its target Protein arginine N-methyltransferase 5 (Homo sapiens, UniProt O14744). The experiment in a line: Inhibition of PRMT5 (unknown origin).
Experiment [2] concerns the target Histone-lysine N-methyltransferase EZH2 (Homo sapiens, UniProt Q15910). The experiment in a line: Inhibition of EZH2 (unknown origin).
For experiment [3], the target named is T1, Histone-arginine methyltransferase CARM1 (Homo sapiens, UniProt Q86X55).
T1 sequence (Q86X55 whole entry): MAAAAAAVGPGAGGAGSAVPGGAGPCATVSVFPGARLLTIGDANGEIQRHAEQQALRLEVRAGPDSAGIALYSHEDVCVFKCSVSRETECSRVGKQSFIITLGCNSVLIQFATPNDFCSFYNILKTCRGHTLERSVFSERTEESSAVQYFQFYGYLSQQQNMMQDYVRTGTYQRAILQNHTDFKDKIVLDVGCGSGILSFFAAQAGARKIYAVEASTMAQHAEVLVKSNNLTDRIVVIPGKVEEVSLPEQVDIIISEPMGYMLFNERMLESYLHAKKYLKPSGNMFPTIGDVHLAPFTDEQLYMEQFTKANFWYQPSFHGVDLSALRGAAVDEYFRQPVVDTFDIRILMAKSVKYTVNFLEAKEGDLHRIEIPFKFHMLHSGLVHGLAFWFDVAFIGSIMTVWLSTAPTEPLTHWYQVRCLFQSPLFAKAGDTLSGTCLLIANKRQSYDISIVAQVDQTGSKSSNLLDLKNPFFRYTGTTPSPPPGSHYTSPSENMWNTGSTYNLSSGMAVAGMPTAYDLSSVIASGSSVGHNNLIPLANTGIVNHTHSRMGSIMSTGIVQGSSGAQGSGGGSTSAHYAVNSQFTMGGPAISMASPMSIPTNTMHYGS
The experiment in a line: Inhibition of CARM1 (unknown origin).

Experiment [4] has as its target Histone-lysine N-methyltransferase, H3 lysine-79 specific (Homo sapiens, UniProt Q8TEK3). The experiment in a line: Inhibition of DOT1L in human THP1 cells assessed as reduction in H3K79 methylation measured after 7 days. The class given is cell-based.
Experiment [5] deals with T2, Histone-lysine N-methyltransferase EHMT2 (Homo sapiens, UniProt Q96KQ7).
T2 sequence (Q96KQ7 whole entry): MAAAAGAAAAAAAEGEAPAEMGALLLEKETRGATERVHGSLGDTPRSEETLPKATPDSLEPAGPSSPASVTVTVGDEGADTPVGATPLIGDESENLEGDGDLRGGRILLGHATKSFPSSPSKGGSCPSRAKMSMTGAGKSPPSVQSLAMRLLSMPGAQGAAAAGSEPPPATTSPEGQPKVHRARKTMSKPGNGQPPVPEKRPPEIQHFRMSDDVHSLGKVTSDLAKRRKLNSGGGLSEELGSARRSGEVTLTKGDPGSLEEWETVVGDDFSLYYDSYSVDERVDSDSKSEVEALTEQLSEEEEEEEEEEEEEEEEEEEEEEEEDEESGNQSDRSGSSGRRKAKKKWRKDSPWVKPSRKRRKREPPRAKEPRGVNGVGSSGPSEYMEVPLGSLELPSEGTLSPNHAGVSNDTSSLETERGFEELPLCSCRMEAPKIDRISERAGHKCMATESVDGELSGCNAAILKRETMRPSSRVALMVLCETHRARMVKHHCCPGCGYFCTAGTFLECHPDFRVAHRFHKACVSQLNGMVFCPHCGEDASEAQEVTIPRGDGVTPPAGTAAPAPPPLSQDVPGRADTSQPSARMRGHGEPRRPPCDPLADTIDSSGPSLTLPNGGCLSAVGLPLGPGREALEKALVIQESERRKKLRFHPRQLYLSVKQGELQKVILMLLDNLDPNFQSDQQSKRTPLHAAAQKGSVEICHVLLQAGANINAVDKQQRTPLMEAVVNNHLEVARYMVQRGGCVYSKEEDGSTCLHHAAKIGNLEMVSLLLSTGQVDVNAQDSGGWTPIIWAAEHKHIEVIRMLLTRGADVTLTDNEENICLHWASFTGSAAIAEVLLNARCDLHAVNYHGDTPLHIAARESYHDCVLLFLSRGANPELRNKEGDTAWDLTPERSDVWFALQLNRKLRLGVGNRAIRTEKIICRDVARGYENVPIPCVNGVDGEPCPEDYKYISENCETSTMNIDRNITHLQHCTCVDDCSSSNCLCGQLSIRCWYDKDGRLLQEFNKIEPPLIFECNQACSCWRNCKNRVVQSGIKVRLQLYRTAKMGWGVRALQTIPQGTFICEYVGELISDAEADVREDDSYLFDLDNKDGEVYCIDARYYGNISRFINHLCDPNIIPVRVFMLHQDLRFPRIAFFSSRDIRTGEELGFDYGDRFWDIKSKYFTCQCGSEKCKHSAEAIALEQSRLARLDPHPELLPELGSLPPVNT
The experiment in a line: Inhibition of EHMT2 (unknown origin).

The subject of another experiment is HFL1. The experiment in a line: Cytotoxicity against human HFL1 cells after 72 hrs by CCK8 assay. The class given is cell-based. Particulars: HFL1, 72 h. A general note: Tetrazolium assays rely on reduction of a dye to a coloured formazan, in cell work by metabolically active cells.
The subject of the next experiment is PC-14. The experiment in a line: Cytotoxicity against human PC14 cells after 72 hrs by CCK8 assay. As to conditions: PC-14, 72 h. The class given is functional, cell-based.
Another experiment concerns CCD-18Co. The experiment in a line: Cytotoxicity against human CCD-18Co cells after 72 hrs by CCK8 assay. It is filed as cell-based.
The next experiment deals with HCT-116. The experiment in a line: Cytotoxicity against human HCT116 cells after 72 hrs by CCK8 assay. It is filed as functional, cell-based. As to conditions: HCT-116, 72 h.
The next experiment deals with A549. The experiment in a line: Cytotoxicity against human A549 cells after 72 hrs by CCK8 assay. Particulars: A549, 72 h. The class given is functional, cell-based.

Histone-lysine N-methyltransferase EZH2, sequence (Q15910 whole entry): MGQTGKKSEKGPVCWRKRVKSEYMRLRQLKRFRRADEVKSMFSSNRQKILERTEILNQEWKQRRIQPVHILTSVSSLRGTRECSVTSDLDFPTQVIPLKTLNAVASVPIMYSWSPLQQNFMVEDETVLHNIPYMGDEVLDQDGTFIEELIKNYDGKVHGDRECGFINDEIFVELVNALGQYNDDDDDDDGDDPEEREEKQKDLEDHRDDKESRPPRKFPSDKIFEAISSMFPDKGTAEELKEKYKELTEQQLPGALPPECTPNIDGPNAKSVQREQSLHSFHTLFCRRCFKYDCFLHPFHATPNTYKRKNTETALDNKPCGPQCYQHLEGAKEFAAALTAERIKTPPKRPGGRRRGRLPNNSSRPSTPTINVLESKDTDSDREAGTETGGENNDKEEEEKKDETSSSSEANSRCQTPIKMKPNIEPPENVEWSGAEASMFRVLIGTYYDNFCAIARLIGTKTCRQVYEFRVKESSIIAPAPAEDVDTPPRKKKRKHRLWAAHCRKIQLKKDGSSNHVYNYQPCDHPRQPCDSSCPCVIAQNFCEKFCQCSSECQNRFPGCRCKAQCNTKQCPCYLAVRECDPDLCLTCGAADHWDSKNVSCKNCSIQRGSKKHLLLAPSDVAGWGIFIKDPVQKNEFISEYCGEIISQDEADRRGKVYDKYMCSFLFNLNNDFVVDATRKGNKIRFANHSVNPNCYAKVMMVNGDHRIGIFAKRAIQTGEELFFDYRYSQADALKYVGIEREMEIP
Histone-lysine N-methyltransferase, H3 lysine-79 specific, sequence (Q8TEK3 whole entry): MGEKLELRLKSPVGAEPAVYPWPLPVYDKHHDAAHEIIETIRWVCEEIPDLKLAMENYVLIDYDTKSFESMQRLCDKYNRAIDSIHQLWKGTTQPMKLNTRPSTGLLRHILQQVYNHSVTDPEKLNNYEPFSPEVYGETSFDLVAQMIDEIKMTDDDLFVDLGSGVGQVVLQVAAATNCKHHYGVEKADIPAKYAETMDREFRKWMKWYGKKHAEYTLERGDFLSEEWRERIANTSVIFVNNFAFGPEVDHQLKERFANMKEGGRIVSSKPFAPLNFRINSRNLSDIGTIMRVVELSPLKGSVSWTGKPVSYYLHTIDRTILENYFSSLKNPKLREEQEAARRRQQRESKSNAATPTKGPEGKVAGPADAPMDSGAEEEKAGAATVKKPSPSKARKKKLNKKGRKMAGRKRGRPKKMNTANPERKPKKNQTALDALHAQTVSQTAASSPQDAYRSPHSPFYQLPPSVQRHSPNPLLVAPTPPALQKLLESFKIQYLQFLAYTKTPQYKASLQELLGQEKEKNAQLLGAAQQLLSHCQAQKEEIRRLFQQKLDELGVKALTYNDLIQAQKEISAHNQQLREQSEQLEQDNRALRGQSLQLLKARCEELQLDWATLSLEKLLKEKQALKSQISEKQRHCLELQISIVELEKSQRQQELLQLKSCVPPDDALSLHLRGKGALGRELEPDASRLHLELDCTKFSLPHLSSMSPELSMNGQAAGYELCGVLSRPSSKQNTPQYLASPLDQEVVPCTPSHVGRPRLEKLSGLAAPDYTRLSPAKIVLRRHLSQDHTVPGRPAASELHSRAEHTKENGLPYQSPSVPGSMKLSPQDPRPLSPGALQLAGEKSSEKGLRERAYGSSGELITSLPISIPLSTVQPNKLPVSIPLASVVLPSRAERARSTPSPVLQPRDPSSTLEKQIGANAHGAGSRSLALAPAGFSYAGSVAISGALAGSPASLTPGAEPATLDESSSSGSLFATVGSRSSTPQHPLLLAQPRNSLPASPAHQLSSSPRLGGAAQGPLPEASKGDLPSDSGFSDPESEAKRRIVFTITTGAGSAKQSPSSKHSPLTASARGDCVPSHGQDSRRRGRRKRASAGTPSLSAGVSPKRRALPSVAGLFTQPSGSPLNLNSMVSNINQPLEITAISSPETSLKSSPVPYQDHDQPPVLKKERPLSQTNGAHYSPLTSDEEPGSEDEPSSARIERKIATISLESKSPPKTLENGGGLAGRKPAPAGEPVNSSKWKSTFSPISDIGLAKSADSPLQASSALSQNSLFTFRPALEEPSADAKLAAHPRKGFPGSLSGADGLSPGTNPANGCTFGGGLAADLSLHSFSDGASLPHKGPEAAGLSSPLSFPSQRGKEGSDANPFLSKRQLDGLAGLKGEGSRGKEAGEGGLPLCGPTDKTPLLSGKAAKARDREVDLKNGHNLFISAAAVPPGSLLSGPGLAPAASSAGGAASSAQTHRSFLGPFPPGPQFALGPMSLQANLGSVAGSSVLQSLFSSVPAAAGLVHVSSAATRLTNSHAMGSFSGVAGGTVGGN
Protein arginine N-methyltransferase 5, sequence (O14744 whole entry): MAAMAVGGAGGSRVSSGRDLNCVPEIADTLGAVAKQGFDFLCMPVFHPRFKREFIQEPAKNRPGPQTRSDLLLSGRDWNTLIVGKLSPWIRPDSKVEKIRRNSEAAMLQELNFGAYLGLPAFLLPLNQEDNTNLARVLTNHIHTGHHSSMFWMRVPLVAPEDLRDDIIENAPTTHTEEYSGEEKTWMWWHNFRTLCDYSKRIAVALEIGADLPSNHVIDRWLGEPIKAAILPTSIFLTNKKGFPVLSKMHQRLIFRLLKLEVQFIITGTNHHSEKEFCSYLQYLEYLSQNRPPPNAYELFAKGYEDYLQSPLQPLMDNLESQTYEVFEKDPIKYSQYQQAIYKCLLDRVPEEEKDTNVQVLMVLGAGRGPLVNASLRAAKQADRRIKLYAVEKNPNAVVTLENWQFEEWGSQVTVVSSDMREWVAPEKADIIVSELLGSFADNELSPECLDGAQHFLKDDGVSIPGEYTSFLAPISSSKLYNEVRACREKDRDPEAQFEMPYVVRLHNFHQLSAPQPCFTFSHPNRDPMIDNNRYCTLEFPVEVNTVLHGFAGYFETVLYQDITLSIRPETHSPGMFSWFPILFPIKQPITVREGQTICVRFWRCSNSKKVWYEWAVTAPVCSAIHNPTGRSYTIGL

`CC(CNC(=O)Nc1ccc(C(C)(C)C)cc1)CN(C)C[C@H]1O[C@@H](n2cnc3c(N)ncnc32)[C@H](O)[C@@H]1O` (stereo not given in full): the IC50 in [1] is > 50 µM; in experiment [2], > 50 µM; in [3] it was > 50 µM; in experiment [4], < 0.1 µM; in experiment [5] it was > 50 µM.

As for `COc1cc(OC)c(-c2cn3cc(NCCN)c(OC)cc3n2)cc1Cl`, the IC50 with HFL1, with PC-14, with CCD-18Co, in the experiment with HCT-116 and in the experiment on A549 was < 10 µM each time.
